Results taken from patent publication US12186337B2 (priority 2009, dated 2025).

Conditions: pH 10

O=NO [sodium nitrite]
pH of 10% solution at 25° C.: 7.9
